The results in this text go back to patent US9636418B2 (priority 2013, dated 2017).

Common to all, as to experiment: cell-based
In one assay the target is hNav1.5 (Homo sapiens, UniProt Q14524). The settings on record: PatchXpress, tonic block; read-out: PX hNav1.5 Tonic IC50.
For a further assay, the target named is hNav1.7 (Homo sapiens, UniProt Q15858). It is filed as cell-based. The settings on record: PatchXpress, tonic block; read-out: PX hNav1.7 Tonic IC50.
Another assay addresses hNav1.4 (Homo sapiens, UniProt P35499). The following applies: for IC50: PatchXpress, tonic block, read-out: PX hNav1.4 Tonic IC50; for Nav1.4/Nav1.7: ratio of PX tonic IC50 values.

hNav1.5, sequence (Q14524 whole entry): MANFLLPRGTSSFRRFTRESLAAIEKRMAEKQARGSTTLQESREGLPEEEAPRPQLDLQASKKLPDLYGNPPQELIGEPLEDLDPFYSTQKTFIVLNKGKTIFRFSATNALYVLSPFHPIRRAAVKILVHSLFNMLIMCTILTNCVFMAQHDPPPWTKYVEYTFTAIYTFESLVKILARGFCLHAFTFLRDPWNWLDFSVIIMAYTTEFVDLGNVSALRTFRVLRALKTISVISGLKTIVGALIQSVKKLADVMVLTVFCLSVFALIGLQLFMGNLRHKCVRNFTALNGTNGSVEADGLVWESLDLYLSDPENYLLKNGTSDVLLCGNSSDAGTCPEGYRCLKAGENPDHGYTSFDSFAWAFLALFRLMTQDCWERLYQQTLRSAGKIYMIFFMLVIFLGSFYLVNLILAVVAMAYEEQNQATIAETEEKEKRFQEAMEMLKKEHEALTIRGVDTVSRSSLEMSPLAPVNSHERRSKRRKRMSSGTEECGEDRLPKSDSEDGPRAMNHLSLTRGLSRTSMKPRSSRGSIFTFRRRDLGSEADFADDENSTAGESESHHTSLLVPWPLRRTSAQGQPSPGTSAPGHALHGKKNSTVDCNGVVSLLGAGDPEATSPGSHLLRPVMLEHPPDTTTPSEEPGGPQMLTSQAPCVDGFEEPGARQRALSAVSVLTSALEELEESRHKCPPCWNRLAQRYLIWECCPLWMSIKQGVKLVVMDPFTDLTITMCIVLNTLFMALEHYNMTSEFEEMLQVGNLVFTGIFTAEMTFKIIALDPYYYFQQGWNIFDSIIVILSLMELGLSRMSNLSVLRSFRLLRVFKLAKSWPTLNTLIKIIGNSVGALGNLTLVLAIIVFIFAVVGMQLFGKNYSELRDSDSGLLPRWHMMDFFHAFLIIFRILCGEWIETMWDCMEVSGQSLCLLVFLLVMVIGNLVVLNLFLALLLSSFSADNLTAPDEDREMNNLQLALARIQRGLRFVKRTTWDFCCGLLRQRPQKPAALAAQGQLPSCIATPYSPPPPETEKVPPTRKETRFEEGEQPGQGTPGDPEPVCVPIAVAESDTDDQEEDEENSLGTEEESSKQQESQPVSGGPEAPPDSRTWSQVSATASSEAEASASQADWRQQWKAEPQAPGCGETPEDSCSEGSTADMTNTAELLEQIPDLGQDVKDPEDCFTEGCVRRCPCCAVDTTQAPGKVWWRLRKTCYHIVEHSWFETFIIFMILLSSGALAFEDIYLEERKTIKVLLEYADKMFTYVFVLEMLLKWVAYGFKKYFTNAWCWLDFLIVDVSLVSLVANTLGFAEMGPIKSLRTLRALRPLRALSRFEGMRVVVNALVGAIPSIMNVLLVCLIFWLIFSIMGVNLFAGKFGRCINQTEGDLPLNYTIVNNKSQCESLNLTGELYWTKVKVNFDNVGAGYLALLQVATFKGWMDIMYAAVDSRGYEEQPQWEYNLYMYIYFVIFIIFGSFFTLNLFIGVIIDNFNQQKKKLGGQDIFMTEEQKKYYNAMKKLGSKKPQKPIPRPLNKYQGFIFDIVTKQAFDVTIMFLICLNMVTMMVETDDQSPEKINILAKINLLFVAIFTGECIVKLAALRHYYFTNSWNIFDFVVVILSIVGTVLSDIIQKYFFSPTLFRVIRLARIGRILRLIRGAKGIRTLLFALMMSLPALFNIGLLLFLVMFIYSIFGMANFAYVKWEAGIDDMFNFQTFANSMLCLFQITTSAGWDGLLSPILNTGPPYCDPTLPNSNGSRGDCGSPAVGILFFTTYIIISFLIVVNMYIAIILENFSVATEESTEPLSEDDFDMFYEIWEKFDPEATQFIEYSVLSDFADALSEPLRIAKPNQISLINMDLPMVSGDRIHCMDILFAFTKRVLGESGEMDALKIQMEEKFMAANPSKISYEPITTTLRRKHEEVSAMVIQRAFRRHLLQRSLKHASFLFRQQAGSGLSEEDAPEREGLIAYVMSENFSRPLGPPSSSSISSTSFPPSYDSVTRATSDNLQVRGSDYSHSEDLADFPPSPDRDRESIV
hNav1.4, sequence (P35499 whole entry): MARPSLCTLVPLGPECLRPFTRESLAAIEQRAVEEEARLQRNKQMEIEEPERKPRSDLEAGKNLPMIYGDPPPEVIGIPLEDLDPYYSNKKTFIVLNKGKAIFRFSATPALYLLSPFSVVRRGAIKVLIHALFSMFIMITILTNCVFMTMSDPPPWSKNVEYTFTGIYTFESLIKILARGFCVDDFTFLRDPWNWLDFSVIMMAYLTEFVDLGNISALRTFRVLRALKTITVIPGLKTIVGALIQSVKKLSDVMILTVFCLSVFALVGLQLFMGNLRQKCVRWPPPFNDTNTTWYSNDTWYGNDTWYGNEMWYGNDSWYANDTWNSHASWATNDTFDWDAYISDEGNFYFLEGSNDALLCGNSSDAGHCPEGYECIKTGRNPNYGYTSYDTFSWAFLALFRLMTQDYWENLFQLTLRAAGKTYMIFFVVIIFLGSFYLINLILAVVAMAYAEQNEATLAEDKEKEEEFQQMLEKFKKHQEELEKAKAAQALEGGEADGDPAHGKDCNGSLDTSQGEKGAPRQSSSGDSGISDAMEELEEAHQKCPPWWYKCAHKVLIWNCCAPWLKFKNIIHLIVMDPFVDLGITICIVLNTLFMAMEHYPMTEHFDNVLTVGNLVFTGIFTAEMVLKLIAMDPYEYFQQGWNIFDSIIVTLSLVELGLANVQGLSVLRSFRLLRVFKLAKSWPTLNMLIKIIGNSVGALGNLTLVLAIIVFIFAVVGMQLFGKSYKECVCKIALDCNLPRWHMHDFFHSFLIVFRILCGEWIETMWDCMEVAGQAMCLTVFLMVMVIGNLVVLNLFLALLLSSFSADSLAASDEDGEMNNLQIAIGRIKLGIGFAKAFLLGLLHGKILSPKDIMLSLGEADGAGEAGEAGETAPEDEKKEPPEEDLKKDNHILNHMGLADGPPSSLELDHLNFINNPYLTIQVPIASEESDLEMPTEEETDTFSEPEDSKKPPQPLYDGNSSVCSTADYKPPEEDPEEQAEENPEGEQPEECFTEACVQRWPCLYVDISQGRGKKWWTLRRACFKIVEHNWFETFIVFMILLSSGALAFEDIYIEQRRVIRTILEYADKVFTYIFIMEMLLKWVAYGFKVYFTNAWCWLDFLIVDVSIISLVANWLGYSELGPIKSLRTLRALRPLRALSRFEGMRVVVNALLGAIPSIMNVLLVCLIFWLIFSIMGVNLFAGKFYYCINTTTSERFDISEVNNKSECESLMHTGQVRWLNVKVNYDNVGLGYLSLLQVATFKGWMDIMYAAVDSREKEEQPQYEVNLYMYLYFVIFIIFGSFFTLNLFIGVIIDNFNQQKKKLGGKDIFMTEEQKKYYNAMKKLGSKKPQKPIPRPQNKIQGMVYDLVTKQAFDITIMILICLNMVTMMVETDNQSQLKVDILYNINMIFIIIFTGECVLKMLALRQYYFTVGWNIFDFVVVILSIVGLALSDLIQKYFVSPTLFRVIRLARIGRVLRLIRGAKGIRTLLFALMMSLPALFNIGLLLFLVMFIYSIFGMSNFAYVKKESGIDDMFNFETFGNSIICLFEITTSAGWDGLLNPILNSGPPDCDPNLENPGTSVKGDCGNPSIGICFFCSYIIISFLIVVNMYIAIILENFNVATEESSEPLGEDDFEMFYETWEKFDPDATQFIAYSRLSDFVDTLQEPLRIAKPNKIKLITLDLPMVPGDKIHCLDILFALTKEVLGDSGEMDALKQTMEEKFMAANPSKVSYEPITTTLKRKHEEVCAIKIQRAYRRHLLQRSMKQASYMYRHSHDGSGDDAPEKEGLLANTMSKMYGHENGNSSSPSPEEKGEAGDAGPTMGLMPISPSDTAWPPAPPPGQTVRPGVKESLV

Regarding `C#CC[C@@H]1NC(=O)[C@@H]2CSSC[C@H](NC(=O)[C@@H](N)Cc3ccc(O)cc3)C(=O)N[C@@H](CCC(N)=O)C(=O)N[C@@H](CCCCN)C(=O)N[C@@H](Cc3c[nH]c4ccccc34)C(=O)N[C@@H](CCCC)C(=O)N[C@@H](Cc3c[nH]c4ccccc34)C(=O)N[C@@H]([C@@H](C)O)C(=O)N[C@H]3CSSC[C@H](NC(=O)[C@H](CCC(=O)O)NC(=O)[C@H](CC(C)C)NC(=O)CNC1=O)C(=O)N[C@@H](CCCCN)C(=O)N[C@@H](CC(C)C)C(=O)N[C@@H](Cc1c[nH]c4ccccc14)C(=O)N[C@H](C(=O)N[C@@H](CCCNC(=N)N)C(=O)N[C@@H](CCCCN)C(=O)N[C@@H](Cc1ccc(O)cc1)C(=O)N[C@H](C(N)=O)[C@@H](C)CC)CSSC[C@H](NC(=O)[C@H](C)NC(=O)[C@H](CCCNC(=N)N)NC(=O)[C@H](CCCCN)NC(=O)[C@H](CO)NC(=O)[C@H](CC(=O)O)NC3=O)C(=O)N2` [compound 317], the IC50 (usually the concentration at which inhibition is half-maximal) amounted to 3520 nM on hNav1.5, 3.8 nM at hNav1.7 and 614 nM at hNav1.4.
On the same counts, the results for `C#CC[C@H](N)C(=O)N[C@@H](Cc1ccc(O)cc1)C(=O)N[C@H]1CSSC[C@@H]2NC(=O)[C@@H]3CSSC[C@@H](C(=O)N[C@@H](CCCNC(=N)N)C(=O)N[C@@H](CCCCN)C(=O)N[C@@H](CCC(=O)O)C(=O)N[C@H](C(N)=O)[C@@H](C)CC)NC(=O)[C@H](Cc4c[nH]c5ccccc45)NC(=O)[C@H](CC(C)C)NC(=O)[C@H](CCCCN)NC(=O)[C@H](CSSC[C@H](NC(=O)[C@H]([C@@H](C)O)NC(=O)[C@H](Cc4c[nH]c5ccccc45)NC(=O)[C@H](CCCC)NC(=O)[C@H](Cc4c[nH]c5ccccc45)NC(=O)[C@H](CCCCN)NC(=O)[C@H](CCC(N)=O)NC1=O)C(=O)N[C@@H](CC(=O)O)C(=O)N[C@@H](CO)C(=O)N[C@@H](CCCCN)C(=O)N[C@@H](CCCNC(=N)N)C(=O)N[C@@H](C)C(=O)N3)NC(=O)[C@H](CCCNC(=N)N)NC(=O)[C@H](CC(C)C)NC(=O)CNC(=O)[C@H](CCC(=O)O)NC2=O` [compound 328] are 3020 nM, 0.515 nM and 130 nM.
On to `C#CC[C@H](N)C(=O)N[C@H]1CSSC[C@@H]2NC(=O)[C@@H]3CSSC[C@@H](C(=O)N[C@@H](CCCNC(=N)N)C(=O)N[C@@H](CCCCN)C(=O)N[C@@H](CCC(=O)O)C(=O)N[C@H](C(N)=O)[C@@H](C)CC)NC(=O)[C@H](Cc4c[nH]c5ccccc45)NC(=O)[C@H](CC(C)C)NC(=O)[C@H](CCCCN)NC(=O)[C@H](CSSC[C@H](NC(=O)[C@H]([C@@H](C)O)NC(=O)[C@H](Cc4c[nH]c5ccccc45)NC(=O)[C@H](CCCC)NC(=O)[C@H](Cc4c[nH]c5ccccc45)NC(=O)[C@H](CCCCN)NC(=O)[C@H](CCC(N)=O)NC1=O)C(=O)N[C@@H](CC(=O)O)C(=O)N[C@@H](CO)C(=O)N[C@@H](CCCCN)C(=O)N[C@@H](CCCNC(=N)N)C(=O)N[C@@H](C)C(=O)N3)NC(=O)[C@H](CCCNC(=N)N)NC(=O)[C@H](CC(C)C)NC(=O)CNC(=O)[C@H](CCC(=O)O)NC2=O` [compound 329], for which the IC50 on hNav1.5 was 4620 nM; at hNav1.7, 0.269 nM; on hNav1.4, 149 nM.
For `C#CC[C@@H]1NC(=O)[C@H](CC(=O)O)NC(=O)[C@@H]2CSSC[C@@H]3NC(=O)[C@H](CCCNC(=N)N)NC(=O)[C@H](CC(C)C)NC(=O)CNC(=O)[C@H](CCC(=O)O)NC(=O)[C@H](CSSC[C@H](NC(=O)[C@@H](N)Cc4ccc(O)cc4)C(=O)N[C@@H](CCC(N)=O)C(=O)N[C@@H](CCCCN)C(=O)N[C@@H](Cc4c[nH]c5ccccc45)C(=O)N[C@@H](CCCC)C(=O)N[C@@H](Cc4c[nH]c5ccccc45)C(=O)N[C@@H]([C@@H](C)O)C(=O)N2)NC(=O)[C@H](CSSC[C@@H](C(=O)N[C@@H](CCCNC(=N)N)C(=O)N[C@@H](CCCCN)C(=O)N[C@@H](CCC(=O)O)C(=O)N[C@H](C(N)=O)[C@@H](C)CC)NC(=O)[C@H](Cc2c[nH]c4ccccc24)NC(=O)[C@H](CC(C)C)NC(=O)[C@H](CCCCN)NC3=O)NC(=O)[C@H](C)NC(=O)[C@H](CCCNC(=N)N)NC(=O)[C@H](CCCCN)NC1=O` [compound 330], the IC50 at hNav1.5 came out at 5980 nM; on hNav1.7, 0.763 nM; on hNav1.4, 222 nM.
For `C#CC[C@@H]1NC(=O)[C@H](CCCNC(=N)N)NC(=O)[C@H](CCCCN)NC(=O)[C@H](CO)NC(=O)[C@H](CC(=O)O)NC(=O)[C@@H]2CSSC[C@@H]3NC(=O)[C@H](CCCNC(=N)N)NC(=O)[C@H](CC(C)C)NC(=O)CNC(=O)[C@H](CCC(=O)O)NC(=O)[C@H](CSSC[C@H](NC(=O)[C@@H](N)Cc4ccc(O)cc4)C(=O)N[C@@H](CCC(N)=O)C(=O)N[C@@H](CCCCN)C(=O)N[C@@H](Cc4c[nH]c5ccccc45)C(=O)N[C@@H](CCCC)C(=O)N[C@@H](Cc4c[nH]c5ccccc45)C(=O)N[C@@H]([C@@H](C)O)C(=O)N2)NC(=O)[C@H](CSSC[C@@H](C(=O)N[C@@H](CCCNC(=N)N)C(=O)N[C@@H](CCCCN)C(=O)N[C@@H](CCC(=O)O)C(=O)N[C@H](C(N)=O)[C@@H](C)CC)NC(=O)[C@H](Cc2c[nH]c4ccccc24)NC(=O)[C@H](CC(C)C)NC(=O)[C@H](CCCCN)NC3=O)NC1=O` [compound 331] the same measures were 3510 nM, 0.493 nM and 105 nM.
For `C#CC[C@@H]1NC(=O)[C@@H]2CSSC[C@H](NC(=O)[C@@H](N)Cc3ccc(O)cc3)C(=O)N[C@@H](CCC(N)=O)C(=O)N[C@@H](CCCCN)C(=O)N[C@@H](Cc3c[nH]c4ccccc34)C(=O)N[C@@H](CCCC)C(=O)N[C@@H](Cc3c[nH]c4ccccc34)C(=O)N[C@@H]([C@@H](C)O)C(=O)N[C@H]3CSSC[C@H](NC(=O)[C@H](CCCNC(=N)N)NC(=O)[C@H](CC(C)C)NC(=O)CNC1=O)C(=O)N[C@@H](CCCCN)C(=O)N[C@@H](CC(C)C)C(=O)N[C@@H](Cc1c[nH]c4ccccc14)C(=O)N[C@H](C(=O)N[C@@H](CCCNC(=N)N)C(=O)N[C@@H](CCCCN)C(=O)N[C@@H](CCC(=O)O)C(=O)N[C@H](C(N)=O)[C@@H](C)CC)CSSC[C@H](NC(=O)[C@H](C)NC(=O)[C@H](CCCNC(=N)N)NC(=O)[C@H](CCCCN)NC(=O)[C@H](CO)NC(=O)[C@H](CC(=O)O)NC3=O)C(=O)N2` [compound 332], the IC50 worked out at 3080 nM at hNav1.5, 3.63 nM at hNav1.7 and 125 nM at hNav1.4. At hNav1.4, the Nav1.4/Nav1.7 worked out at 34.
`C#CC[C@H](N)C(=O)N[C@H]1CSSC[C@@H]2NC(=O)[C@@H]3CSSC[C@@H](C(=O)N[C@@H](CCCNC(=N)N)C(=O)N[C@@H](CCCCN)C(=O)N[C@H](C(=O)N[C@H](C(N)=O)[C@@H](C)CC)[C@@H](C)CC)NC(=O)[C@H](Cc4c[nH]c5ccccc45)NC(=O)[C@H](CC(C)C)NC(=O)[C@H](CCCCN)NC(=O)[C@H](CSSC[C@H](NC(=O)[C@H]([C@@H](C)O)NC(=O)[C@H](Cc4c[nH]c5ccccc45)NC(=O)[C@H](CCCC)NC(=O)[C@H](Cc4c[nH]c5ccccc45)NC(=O)[C@H](CCCCN)NC(=O)[C@H](CCC(N)=O)NC1=O)C(=O)N[C@@H](CC(=O)O)C(=O)N[C@@H](CO)C(=O)N[C@@H](CCCCN)C(=O)N[C@@H](CCCNC(=N)N)C(=O)N[C@@H](C)C(=O)N3)NC(=O)[C@H](CCC(=O)O)NC(=O)[C@H](CC(C)C)NC(=O)CNC(=O)[C@H](CCC(=O)O)NC2=O` [compound 343]: the results for the IC50 at hNav1.5, at hNav1.7 and at hNav1.4 were 2660 nM, 2.63 nM and 790 nM, respectively. For the same compound, at hNav1.4, the Nav1.4/Nav1.7 is on record as 300.
